In the assay the test system is MV-4-11 cells. The experiment in a line: Gene expression microarray analysis (Affymetrix PrimeView) and GSEA. It is filed as cell-based, human. Also noted: RFU PODN (11730768_x_at) / Fold change /veh PODN (11730768_x_at) / RFU LINC00158 (11744669_a_at) / Fold change /veh LINC00158 (11744669_a_at) / RFU DUSP10 (11751237_a_at) / Fold change /veh DUSP10 (11751237_a_at) / RFU ID3 (11757404_x_at) / Fold change /veh ID3 (11757404_x_at) / RFU PLEKHG5 (11737974_s_at) / Fold change /veh PLEKHG5 (11737974_s_at) / RFU LRRC4B (11730491_at) / Fold change /veh LRRC4B (11730491_at) / RFU GIMAP4 (11747438_a_at) / Fold change /veh GIMAP4 (11747438_a_at) / RFU KRT8 (11758183_x_at) / Fold change /veh KRT8 (11758183_x_at) / RFU CNN1 (11734310_a_at) / Fold change /veh CNN1 (11734310_a_at) / RFU VPS37D (11726825_at) / Fold change /veh VPS37D (11726825_at) / RFU C10orf10 (11716522_x_at) / Fold change /veh C10orf10 (11716522_x_at) / RFU KIR2DL2 /// KIR2DL4 /// KIR2DL5A /// KIR2DL5B /// KIR2DS1 /// KIR2DS2 /// KIR2DS3 /// KIR2DS4 /// KIR3DL3 /// KIR3DL3 /// KIR3DS1 (11738374_at) / Fold change /veh KIR2DL2 /// KIR2DL4 /// KIR2DL5A /// KIR2DL5B /// KIR2DS1 /// KIR2DS2 /// KIR2DS3 /// KIR2DS4 /// KIR3DL3 /// KIR3DL3 /// KIR3DS1 (11738374_at) / RFU C1QL1 (11718748_at) / Fold change /veh C1QL1 (11718748_at) / RFU TMPRSS4 (11747572_a_at) / Fold change /veh TMPRSS4 (11747572_a_at) / RFU HAMP (11756126_x_at) / Fold change /veh HAMP (11756126_x_at) / RFU RNFT2 (11725882_a_at) / Fold change /veh RNFT2 (11725882_a_at) / RFU NR4A2 (11747474_a_at) / Fold change /veh NR4A2 (11747474_a_at) / RFU ABCC12 (11746883_a_at) / Fold change /veh ABCC12 (11746883_a_at) / RFU TMEM136 (11760407_x_at) / Fold change /veh TMEM136 (11760407_x_at) / RFU CLDN22 /// WWC2 (11732394_at) / Fold change /veh CLDN22 /// WWC2 (11732394_at) / RFU HLA-DPB1 (11760878_x_at) / Fold change /veh HLA-DPB1 (11760878_x_at) / RFU SPINT1 (11716480_a_at) / Fold change /veh SPINT1 (11716480_a_at) / RFU GAP43 (11754022_s_at) / Fold change /veh GAP43 (11754022_s_at) / RFU A4GNT (11735810_at) / Fold change /veh A4GNT (11735810_at) / RFU PRB3 (11715151_x_at) / Fold change /veh PRB3 (11715151_x_at) / RFU TUBB4B (11761932_at) / Fold change /veh TUBB4B (11761932_at) / RFU CAPN14 (11732068_a_at) / Fold change /veh CAPN14 (11732068_a_at) / RFU TMCC2 (11721928_a_at) / Fold change /veh TMCC2 (11721928_a_at) / RFU IRGQ (11745062_a_at) / Fold change /veh IRGQ (11745062_a_at) / RFU FAM174B (11720279_a_at) / Fold change /veh FAM174B (11720279_a_at) / RFU TMPRSS4 (11748680_a_at) / Fold change /veh TMPRSS4 (11748680_a_at) / RFU FAM212B (11763350_a_at) / Fold change /veh FAM212B (11763350_a_at) / RFU PLEKHG5 (11743358_a_at) / Fold change /veh PLEKHG5 (11743358_a_at) / RFU ZSCAN30 (11745921_a_at) / Fold change /veh ZSCAN30 (11745921_a_at) / RFU CMKLR1 (11741424_a_at) / Fold change /veh CMKLR1 (11741424_a_at) / RFU LOC101060620 /// MAPK8IP1 (11723275_at) / Fold change /veh LOC101060620 /// MAPK8IP1 (11723275_at) / RFU SPTSSB (11747773_x_at) / Fold change /veh SPTSSB (11747773_x_at) / RFU PRSS12 (11739890_at) / Fold change /veh PRSS12 (11739890_at) / RFU BIN1 (11741810_x_at) / Fold change /veh BIN1 (11741810_x_at) / RFU WNT11 (11732464_a_at) / Fold change /veh WNT11 (11732464_a_at) / RFU C10orf10 (11716521_a_at) / Fold change /veh C10orf10 (11716521_a_at) / RFU C5orf56 (11738089_at) / Fold change /veh C5orf56 (11738089_at) / RFU CYB561 (11721691_x_at) / Fold change /veh CYB561 (11721691_x_at) / RFU ANKRD19P (11752326_a_at) / Fold change /veh ANKRD19P (11752326_a_at) / RFU OR2T12 /// OR2T33 /// OR2T8 (11738714_s_at) / Fold change /veh OR2T12 /// OR2T33 /// OR2T8 (11738714_s_at) / RFU VCAN (11748164_a_at) / Fold change /veh VCAN (11748164_a_at) / RFU JSRP1 (11732532_at) / Fold change /veh JSRP1 (11732532_at) / RFU KRTAP10-11 (11738290_x_at) / Fold change /veh KRTAP10-11 (11738290_x_at) / RFU MYO3A (11730013_a_at) / Fold change /veh MYO3A (11730013_a_at) / RFU EBF3 (11725865_a_at) / Fold change /veh EBF3 (11725865_a_at) / RFU CAMK2N1 (11719241_x_at) / Fold change /veh CAMK2N1 (11719241_x_at) / RFU C5orf56 (11738088_a_at) / Fold change /veh C5orf56 (11738088_a_at) / RFU OLFML3 (11715873_a_at) / Fold change /veh OLFML3 (11715873_a_at) / RFU LOC100653217 /// NTM (11731650_a_at) / Fold change /veh LOC100653217 /// NTM (11731650_a_at) / RFU MAPK11 (11762145_a_at) / Fold change /veh MAPK11 (11762145_a_at) / RFU FIZ1 (11724087_x_at) / Fold change /veh FIZ1 (11724087_x_at) / RFU OASL (11726364_x_at) / Fold change /veh OASL (11726364_x_at) / RFU SOX15 (11748057_x_at) / Fold change /veh SOX15 (11748057_x_at) / RFU CD79A (11719716_a_at) / Fold change /veh CD79A (11719716_a_at) / RFU HIST1H1D (11736915_at) / Fold change /veh HIST1H1D (11736915_at) / RFU CASKIN2 (11723855_a_at) / Fold change /veh CASKIN2 (11723855_a_at) / RFU LOC730098 (11760151_x_at) / Fold change /veh LOC730098 (11760151_x_at) / RFU OR4N2 (11742367_at) / Fold change /veh OR4N2 (11742367_at) / RFU PRRT2 (11749266_a_at) / Fold change /veh PRRT2 (11749266_a_at) / RFU SNX32 (11753110_a_at) / Fold change /veh SNX32 (11753110_a_at) / RFU CDHR5 (11726645_a_at) / Fold change /veh CDHR5 (11726645_a_at) / RFU RCAN1 (11760418_a_at) / Fold change /veh RCAN1 (11760418_a_at) / RFU FAM167A (11723789_a_at) / Fold change /veh FAM167A (11723789_a_at) / RFU FAM26E (11764081_at) / Fold change /veh FAM26E (11764081_at) / RFU ISYNA1 (11749810_s_at) / Fold change /veh ISYNA1 (11749810_s_at) / RFU ACY1 (11761880_at) / Fold change /veh ACY1 (11761880_at) / RFU 11764098_at / Fold change /veh 11764098_at / RFU SAMD14 (11745864_x_at) / Fold change /veh SAMD14 (11745864_x_at) / RFU NPB (11741838_a_at) / Fold change /veh NPB (11741838_a_at) / RFU TMPRSS6 (11731388_a_at) / Fold change /veh TMPRSS6 (11731388_a_at) / RFU KRTAP10-2 (11738614_at) / Fold change /veh KRTAP10-2 (11738614_at) / RFU ARHGAP8 /// PRR5-ARHGAP8 (11727945_x_at) / Fold change /veh ARHGAP8 /// PRR5-ARHGAP8 (11727945_x_at) / RFU KRTAP5-7 /// NADSYN1 (11734609_at) / Fold change /veh KRTAP5-7 /// NADSYN1 (11734609_at) / RFU RASL12 (11751679_a_at) / Fold change /veh RASL12 (11751679_a_at) / RFU CDKN2B (11736163_a_at) / Fold change /veh CDKN2B (11736163_a_at) / RFU PRF1 (11729649_at) / Fold change /veh PRF1 (11729649_at) / RFU, ZNF638 /// ZNF638-IT1 / Fold change vs veh, ZNF638 /// ZNF638-IT1 / RFU, PANK3 / Fold change vs veh, PANK3 / RFU, SH3YL1 / Fold change vs veh, SH3YL1 / RFU, ZEB2 / Fold change vs veh, ZEB2 / RFU, NRIP1 / Fold change vs veh, NRIP1 / RFU, PTTG1IP / Fold change vs veh, PTTG1IP / RFU, CAPN2 / Fold change vs veh, CAPN2 / RFU, MED14 / Fold change vs veh, MED14 / RFU, SNORA58 / Fold change vs veh, SNORA58 / RFU, C1orf63 / Fold change vs veh, C1orf63 / RFU, LRRFIP1 / Fold change vs veh, LRRFIP1 / RFU, NDUFAF7 / Fold change vs veh, NDUFAF7 / RFU, SLC12A2 / Fold change vs veh, SLC12A2 / RFU, IBTK / Fold change vs veh, IBTK / RFU, ESF1 / Fold change vs veh, ESF1 / Fold change vs veh, TMEM50B / RFU, TAOK1 / Fold change vs veh, TAOK1 / RFU, ACBD3 / Fold change vs veh, ACBD3 / RFU, TMA16 / Fold change vs veh, TMA16 / RFU, RWDD3 / Fold change vs veh, RWDD3 / RFU, BCAT1 / Fold change vs veh, BCAT1 / RFU, EDEM3 / Fold change vs veh, EDEM3 / RFU, TMEM33 / Fold change vs veh, TMEM33 / RFU, WDR75 / Fold change vs veh, WDR75 / RFU, AHCTF1 / Fold change vs veh, AHCTF1 / RFU, TFRC / Fold change vs veh, TFRC / RFU, ZDHHC17 / Fold change vs veh, ZDHHC17 / RFU, NOM1 / Fold change vs veh, NOM1 / RFU, ARL8B / Fold change vs veh, ARL8B / RFU, ZBTB11 / Fold change vs veh, ZBTB11 / RFU, TAMM41 / Fold change vs veh, TAMM41 / RFU, KIAA1704 /// LOC100996395 / Fold change vs veh, KIAA1704 /// LOC100996395 / RFU, ING1 / Fold change vs veh, ING1 / RFU, TRMT61B / Fold change vs veh, TRMT61B / RFU, FUBP3 / Fold change vs veh, FUBP3 / RFU, TP53 / Fold change vs veh, TP53 / RFU, TNKS2 / Fold change vs veh, TNKS2 / RFU, ZFP14 / Fold change vs veh, ZFP14 / RFU, ACTR2 / Fold change vs veh, ACTR2 / RFU, PPP3R1 / Fold change vs veh, PPP3R1 / RFU, PIK3R1 / Fold change vs veh, PIK3R1 / RFU, HNRNPA1 / Fold change vs veh, HNRNPA1 / RFU, RNF170 / Fold change vs veh, RNF170 / RFU, ZNF28 / Fold change vs veh, ZNF28 / RFU, RNGTT / Fold change vs veh, RNGTT / RFU, OGT / Fold change vs veh, OGT / RFU, BRD1 / Fold change vs veh, BRD1 / RFU, MARS / Fold change vs veh, MARS / RFU, ZNF655 / Fold change vs veh, ZNF655 / RFU, FAHD1 / Fold change vs veh, FAHD1 / RFU, BDP1 / Fold change vs veh, BDP1 / RFU, LRRCC1 / Fold change vs veh, LRRCC1 / RFU, ARID1A / Fold change vs veh, ARID1A / RFU, ZNF146 / Fold change vs veh, ZNF146 / RFU, ZNF330 / Fold change vs veh, ZNF330 / RFU, GPN3 / Fold change vs veh, GPN3 / RFU, C9orf123 / Fold change vs veh, C9orf123 / RFU, N4BP2L2 / Fold change vs veh, N4BP2L2 / RFU, ARFIP1 / Fold change vs veh, ARFIP1 / RFU, FAM179B / Fold change vs veh, FAM179B / RFU, BCL10 / Fold change vs veh, BCL10 / RFU, UHRF1BP1L / Fold change vs veh, UHRF1BP1L / RFU, BET1 / Fold change vs veh, BET1 / RFU, CNOT2 / Fold change vs veh, CNOT2 / RFU, ZNF268 / Fold change vs veh, ZNF268 / Fold change vs veh, ZNF507 / RFU, DGCR2 / Fold change vs veh, DGCR2 / RFU, WDSUB1 / Fold change vs veh, WDSUB1 / Fold change vs veh, HSP90B1 /// MIR3652 / RFU, ADSS / Fold change vs veh, ADSS / RFU, GK / Fold change vs veh, GK / RFU, ZNF148 / Fold change vs veh, ZNF148 / RFU, TAF9 / Fold change vs veh, TAF9 / RFU, SLC1A5 / Fold change vs veh, SLC1A5 / RFU, SLMO2 / Fold change vs veh, SLMO2 / RFU, ABCC4 / Fold change vs veh, ABCC4 / RFU, LOC101060439 /// RAP1B / Fold change vs veh, LOC101060439 /// RAP1B / RFU, RFX7 / Fold change vs veh, RFX7 / RFU, GTPBP10 / Fold change vs veh, GTPBP10 / RFU, CNEP1R1 / Fold change vs veh, CNEP1R1 / RFU, BIVM-ERCC5 /// ERCC5 / Fold change vs veh, BIVM-ERCC5 /// ERCC5 / RFU, ILF3 / Fold change vs veh, ILF3 / RFU 11762660_at / Fold change /veh 11762660_at / RFU VCAN (11757783_s_at) / Fold change /veh VCAN (11757783_s_at) / RFU DDX43 (11728927_at) / Fold change /veh DDX43 (11728927_at) / RFU KRT8 (11758188_x_at) / Fold change /veh KRT8 (11758188_x_at) / RFU NKD1 (11759106_at) / Fold change /veh NKD1 (11759106_at) / RFU SRD5A1 (11742802_a_at) / Fold change /veh SRD5A1 (11742802_a_at) / RFU TPSAB1 /// TPSB2 (11721975_s_at) / Fold change /veh TPSAB1 /// TPSB2 (11721975_s_at) / RFU GSTM3 (11746129_a_at) / Fold change /veh GSTM3 (11746129_a_at) / RFU IL23R (11737362_x_at) / Fold change /veh IL23R (11737362_x_at) / RFU TMEM51 (11727254_a_at) / Fold change /veh TMEM51 (11727254_a_at) / RFU PIWIL2 (11732686_x_at) / Fold change /veh PIWIL2 (11732686_x_at) / RFU ORM1 (11744905_x_at) / Fold change /veh ORM1 (11744905_x_at) / RFU CCDC152 (11743942_at) / Fold change /veh CCDC152 (11743942_at) / RFU ECM1 (11717891_a_at) / Fold change /veh ECM1 (11717891_a_at) / RFU IL23R (11748794_a_at) / Fold change /veh IL23R (11748794_a_at) / RFU TNFAIP8L3 (11732012_x_at) / Fold change /veh TNFAIP8L3 (11732012_x_at) / RFU MBOAT4 (11741988_at) / Fold change /veh MBOAT4 (11741988_at) / RFU 11764193_at / Fold change /veh 11764193_at / RFU TMEM53 (11763286_at) / Fold change /veh TMEM53 (11763286_at) / RFU MAGEB2 (11727129_at) / Fold change /veh MAGEB2 (11727129_at) / RFU TMEM200A (11744735_a_at) / Fold change /veh TMEM200A (11744735_a_at) / RFU CCDC152 (11751479_a_at) / Fold change /veh CCDC152 (11751479_a_at) / RFU FAM211A (11726209_a_at) / Fold change /veh FAM211A (11726209_a_at) / RFU RGS16 (11746705_a_at) / Fold change /veh RGS16 (11746705_a_at) / RFU VCAN (11755009_s_at) / Fold change /veh VCAN (11755009_s_at) / RFU RHOB (11743442_s_at) / Fold change /veh RHOB (11743442_s_at) / RFU RGS16 (11720943_a_at) / Fold change /veh RGS16 (11720943_a_at) / RFU RGS16 (11720944_at) / Fold change /veh RGS16 (11720944_at) / RFU, VPS4B / Fold change vs veh, VPS4B / RFU, CREB1 / Fold change vs veh, CREB1 / RFU, DNAJC13 / Fold change vs veh, DNAJC13 / RFU, GNAQ / Fold change vs veh, GNAQ / RFU, CDK5R1 / Fold change vs veh, CDK5R1 / RFU, ZRANB3 / Fold change vs veh, ZRANB3 / RFU, CUL4A / Fold change vs veh, CUL4A / RFU, CCNY / Fold change vs veh, CCNY / RFU, UFL1 / Fold change vs veh, UFL1 / RFU, COG3 / Fold change vs veh, COG3 / RFU, DIAPH2 / Fold change vs veh, DIAPH2 / RFU, SKA2 / Fold change vs veh, SKA2 / RFU, AFF3 / Fold change vs veh, AFF3 / RFU, LMF1 / Fold change vs veh, LMF1 / RFU, IPO11 / Fold change vs veh, IPO11 / RFU, DFFB / Fold change vs veh, DFFB / RFU, FOXP1 / Fold change vs veh, FOXP1 / RFU, CARD8 / Fold change vs veh, CARD8 / RFU, STRN3 / Fold change vs veh, STRN3 / RFU, ADK / Fold change vs veh, ADK / RFU, RASSF2 / Fold change vs veh, RASSF2 / RFU, WIPF1 / Fold change vs veh, WIPF1 / RFU, LARP1B / Fold change vs veh, LARP1B / RFU, RASA1 / Fold change vs veh, RASA1 / RFU, RB1 / Fold change vs veh, RB1 / RFU, PPFIA1 / Fold change vs veh, PPFIA1 / RFU, MAT2A / Fold change vs veh, MAT2A / RFU, CCT5 / Fold change vs veh, CCT5 / RFU, WDR92 / Fold change vs veh, WDR92 / RFU, CUX1 / Fold change vs veh, CUX1 / RFU, TTC7A / Fold change vs veh, TTC7A / RFU, TMEM135 / Fold change vs veh, TMEM135 / RFU, DEPTOR / Fold change vs veh, DEPTOR / RFU, CPM / Fold change vs veh, CPM / RFU, DNAJB6 / Fold change vs veh, DNAJB6 / RFU, CACNA2D3 / Fold change vs veh, CACNA2D3 / RFU, DTX4 / Fold change vs veh, DTX4 / RFU, TFCP2 / Fold change vs veh, TFCP2 / RFU, GMCL1 /// GMCL1P1 / Fold change vs veh, GMCL1 /// GMCL1P1 / RFU, AEBP2 / Fold change vs veh, AEBP2 / RFU, SNHG1 /// SNORD22 /// SNORD25 /// SNORD26 /// SNORD27 /// SNORD28 /// SNORD29 /// SNORD31 / Fold change vs veh, SNHG1 /// SNORD22 /// SNORD25 /// SNORD26 /// SNORD27 /// SNORD28 /// SNORD29 /// SNORD31 / Fold change (Aza/veh), C12orf56 (ProbeSet 11735607_a_at) / Fold change (ACY-1035/veh), C12orf56 (ProbeSet 11735607_a_at) / Fold change (Aza/veh), FGFR1OP (ProbeSet 11751329_s_at) / Fold change (ACY-1035/veh), FGFR1OP (ProbeSet 11751329_s_at) / Fold change (Aza/veh), VPS36 (ProbeSet 11739960_a_at) / Fold change (ACY-1035/veh), VPS36 (ProbeSet 11739960_a_at) / RFU SYPL1 (11715823_x_at) / Fold change /veh SYPL1 (11715823_x_at) / RFU IGFBP7 (11715501_s_at) / Fold change /veh IGFBP7 (11715501_s_at) / RFU REEP3 (11722064_at) / Fold change /veh REEP3 (11722064_at) / RFU IGLL1 (11728026_x_at) / Fold change /veh IGLL1 (11728026_x_at): dose or concentration left out as unconfirmed. The note with it: MV-4-11 cells, 48 hours.

Turning to `Nc1ccc(-c2cccs2)cc1NC(=O)c1ccc2c(c1)cc(C1CC1)n2CCN1CCOCC1` [ACY-1035], the “Fold change /veh CNN1 (11734310_a_at)” value turned out to be 1.19.

(Values after PMC5218480 (PLoS ONE, 2017).)
